The source of these data is patent US20250101025A1, “NOVEL PLK1 DEGRADATION INDUCING COMPOUND” (UPPTHERA, INC., priority 2021, published 2025).

Common to all, as to type: cell-based
One assay deals with T1, PLK1 (Homo sapiens, UniProt P53350).
T1 construct: endogenous in cells; host or cells: HeLa LgBit (Plk1-HiBit KI): HeLa stably expressing LgBit, with HiBit knocked in at the endogenous Plk1 locus by CRISPR/Cas9
As to the kind of experiment: Luciferase assay for PLK1 in HeLa LgBit (Plk1-HiBit KI) cell line. Conditions: compound 300 nM, luminescence after 9 hours. An outline of the steps:
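HeLa cells stably expressing LgBit, with HiBit knocked in at the endogenous Plk1 C-terminus, synchronized by 2 mM thymidine block for 24 h, then released and cultured 18 h. Compound added at 300 nM with Endurazine substrate; luminescence tracked in real time and expressed as ratio to DMSO.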
A general note: HiBiT is a short tag that completes a luciferase, so light tracks the accessible tagged protein.

Another assay concerns H526 cell line. As to the kind of experiment: Cell viability assay for NCI-H526 cell line (EZ-Cytox). Conditions: Homo sapiens, NCI-H526, 120 h; H526 cells, 3-fold dilutions 3000 nM to 0.46 nM, 5 days. Put shortly: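 NCI-H526 cells were exposed to compound in CO2 incubator culture for 5 days. Viability was read by EZ-Cytox absorbance at 450 nm after 3 min shaking, giving IC50 values.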

The next assay deals with MRC-5 cell line. Nature of the assay: Cell viability assay for MRC-5 cell line (EZ-Cytox cytotoxicity experiment). Conditions: Homo sapiens, MRC5, 120 h, MRC-5 normal cell line, 5 days. How it is done:
4. Cell Viability Assay for MRC-5 Cell Line
(1) Culture of MRC-5 Cell Line
Passage of cultured cells was maintained within P15.
(2) Treatment of Compounds of the Present Invention
Then, it was cultured in 37° C.
(3) Cytotoxicity Experiment
CO2 incubator for 4 hours.

The mark [1] stands for this setting: highest concentration 10000 nM, N.D. = no cytotoxicity until 10 μM, read-out: Activity: IC50 value to MRC-5 cell line, N.D. cells.

Read-outs that look alike come from different tables or passages of the source. A value given as a limit tells only on which side of the number the result lay.

T1 sequence (P53350 whole entry): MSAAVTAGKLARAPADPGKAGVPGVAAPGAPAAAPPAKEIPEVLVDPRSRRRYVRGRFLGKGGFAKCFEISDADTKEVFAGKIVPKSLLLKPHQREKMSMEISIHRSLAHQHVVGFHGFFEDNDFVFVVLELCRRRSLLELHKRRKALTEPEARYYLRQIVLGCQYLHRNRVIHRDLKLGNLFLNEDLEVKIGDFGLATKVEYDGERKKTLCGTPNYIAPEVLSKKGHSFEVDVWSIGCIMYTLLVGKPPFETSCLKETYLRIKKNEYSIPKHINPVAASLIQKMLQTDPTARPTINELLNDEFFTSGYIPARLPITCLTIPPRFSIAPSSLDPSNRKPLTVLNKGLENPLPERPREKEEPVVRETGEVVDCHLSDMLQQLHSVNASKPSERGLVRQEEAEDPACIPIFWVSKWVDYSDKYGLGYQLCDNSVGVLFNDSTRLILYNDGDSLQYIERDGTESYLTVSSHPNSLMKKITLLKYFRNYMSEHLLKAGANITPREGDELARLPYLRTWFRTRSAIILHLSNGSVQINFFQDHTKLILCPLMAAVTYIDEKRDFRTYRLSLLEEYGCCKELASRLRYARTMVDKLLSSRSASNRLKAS

A word on the IC50: it is the concentration at which inhibition is half-maximal. With `COc1cc(C(=O)NC2CCN(CC3CN(c4ccc(NC5CCC(=O)NC5=O)cc4F)C3)CC2)ccc1Nc1ncc2c(n1)N(C(C)C)CC(F)(F)C(=O)N2C` (stereo not drawn) [Compound 20, 4-((7,7-difluoro-9-isopropyl-5-methyl-6-oxo-6,7,8,9-tetrahydro-5H-pyrimido[4,5-b][1,4]diazepin-2-yl)amino)-N-(1-((1-(4-((2,6-dioxopiperidin-3-yl)amino)-2-fluorophenyl)azetidin-3-yl)methyl)piperidin-4-yl)-3-methoxybenzamide], the “Activity: ratio of the luminescence value of each Exemplary Compound treatment group to DMSO treatment group” value (“Activity: ratio” for short) on PLK1 was “++ (++<0.6)”. Besides, the IC50 in the assay with H526 cell line was under 0.05 µM; in the assay on MRC-5 cell line (setting [1]), over 10000 nM.

`COc1cc(C(=O)NC2CCN(C(=O)CCN3CCN(c4ccc(N(C)C5CCC(=O)NC5=O)cc4F)CC3)CC2)ccc1Nc1ncc2c(n1)N(C1CCCC1)CC(F)(F)C(=O)N2C` (stereo not drawn) [Compound 16, 4-((9-cyclopentyl-7,7-difluoro-5-methyl-6-oxo-6,7,8,9-tetrahydro-5H-pyrimido[4,5-b][1,4]diazepin-2-yl)amino)-N-(1-(3-(4-(4-((2,6-dioxopiperidin-3-yl)(methyl)amino)-2-fluorophenyl)piperazin-1-yl)propanoyl)piperidin-4-yl)-3-methoxybenzamide]: on PLK1, the “Activity: ratio” value is reported as “+++ (+++: <0.3)”. In addition, the values for the IC50 with H526 cell line and in the assay on MRC-5 cell line (setting [1]) were under 0.03 µM and over 10000 nM, respectively.

For `COc1cc(C(=O)NC2CC3(CCN(CC4CCN(c5ccc(OC6CCC(=O)NC6=O)cc5)CC4)CC3)C2)ccc1Nc1ncc2c(n1)N(C(C)C)CC(F)(F)C(=O)N2C` (stereo not drawn) [Compound 36, 4-((7,7-difluoro-9-isopropyl-5-methyl-6-oxo-6,7,8,9-tetrahydro-5H-pyrimido[4,5-b][1,4]diazepin-2-yl)amino)-N-(7-((1-(4-((2,6-dioxopiperidin-3-yl)oxy)phenyl)piperidin-4-yl)methyl)-7-azaspiro[3.5]nonan-2-yl)-3-methoxybenzamide], the “Activity: ratio” value on PLK1 is recorded as “+++ (+++: <0.3)”. For the same compound, the IC50 in the assay on H526 cell line was under 0.03 µM; with MRC-5 cell line (3-fold dilutions 10000 nM to 1.52 nM, Exemplary Compounds, numeric values, read-out: Activity: IC50 value (nM) to MRC-5 cell line), 9800 nM.

`COc1cc(C(=O)NC2CCC(N(C)CC3CCN(c4ccc(NC5CCC(=O)NC5=O)cc4F)CC3)CC2)ccc1Nc1ncc2c(n1)N(C1CCCC1)CC(F)(F)C(=O)N2C` (stereo not drawn) [Compound 34, 4-((9-cyclopentyl-7,7-difluoro-5-methyl-6-oxo-6,7,8,9-tetrahydro-5H-pyrimido[4,5-b][1,4]diazepin-2-yl)amino)-N-((1r,4r)-4-(((1-(4-((2,6-dioxopiperidin-3-yl)amino)-2-fluorophenyl)piperidin-4-yl)methyl)(methyl)amino)cyclohexyl)-3-methoxybenzamide]: on PLK1, the “Activity: ratio” value was “+++ (+++: <0.3)”. Besides, the IC50 is under 0.03 µM in the assay on H526 cell line and over 10000 nM in the assay on MRC-5 cell line (setting [1]).
